Earlier results, collected in US20100179106A1, “MITOCHONDRIAL COMPOSITIONS AND USES THEREOF” (Gencia Corporation, priority 2007, published 2010).

Tests used:
[1] = test system: patients with mitochondrial disorders; details: short-term study, creatine supplementation (Tarnopolsky et al. 1997)
[2] = set-up: dose or concentration left out as unconfirmed; details: dosages as high as (Harris et al. 1992)
[3] = test system: brain slice cultures; details: 20 mM creatine, brain slice cultures (Li et al. 2004)

## CN(CC(=O)O)C(=N)N [creatine, 2-(carbamimidoyl-methyl-amino) acetic acid]
[1]
  high-intensity anaerobic and aerobic activities: improved
  lower-intensity aerobic activities: no effect
[2]
  side effects: no reported side effects
[3]
  mitochondrial activity: sufficient to stimulate mitochondrial activity
